In PubChem BioAssay AID2060330 (Molecular Pharmacology Branch, DTP, NCI, 2025):
Values joined by “and” are separate entries in the source; they are usually repeats but may differ in a detail not shown here. Equal entries are not always repeated.

System: LG0703-F948-PDC spheroids with HUVEC/MSC, viability
Assay: Anticancer human tumor LG0703-F948-PDC patient-derived lung adenocarcinoma cell line growth inhibition [IpAb]
Conditions: for viability, T/C: stronger effect = lower value
Description: Combinatorial screen of targeted agents with ipatasertib and abemaciclib in multi-cell type tumor spheroids
A high-throughput screen of multi-cell type tumor spheroids was designed to identify active combinations of targeted small molecules and ipatasertib or abemaciclib. Complex spheroids include a stromal component modeled by human endothelial cells (HUVEC) and fibroblasts modeled by human mesenchymal stem cells (MSCs). The concentration ranges selected for each drug and investigational agent were based upon clinically achievable concentrations if the clinical Cmax of the agent was known.
Compounds. The drugs and investigational agents: ipatasertib (NSC767898), abemaciclib(NSC768073), selumetinib (NSC741078), trametinib (758246), adavosertib (NSC754352), everolimus (NSC733504), sapanisertib (NSC764658), vemurafenib (NSC761431), venetoclax (NSC766270), copanlisib (NSC809693), apelisib (NSC765974), palbociblib (NSC758247), vemurafenib (NSC761431), dabrafenib (NSC764134), ravoxertinib (NSC781343), BMS-387032 (NSC767048), sotorasib (NSC818433), talazoparib (NSC767125) and afursertib (NSC778305), were obtained from the National Cancer Institute (NCI) Developmental Therapeutics Program Chemical Repository. The FDA-approved anticancer drug set is available from the NCI Developmental Therapeutics Program. […] The stock solutions were prepared in dimethyl sulfoxide (DMSO, Sigma-Aldrich, St. Louis, MO, cat. D2650) at 800-fold the tested concentration and stored at -70 degrees C prior to their use. All drugs and investigational agents were tested over a range starting from a high concentration at or near the clinical Cmax and decreasing in half-log increments. If the clinical Cmax for an agent had not been determined, the highest concentration tested was 10 microM.
NCI60 Cell Culture. NCI60 cell lines were obtained from the NCI Developmental Therapeutics Program Tumor Repository. For each lot of cells, the Repository performed Applied Biosystems AmpFLSTR Identifiler testing with PCR amplification to confirm consistency with the published Identifier STR profile for each cell line. Cells were kept in continuous culture for no more than 20 passages. The optimal seeding densities for each of the cell lines at each time point assessed were determined prior to performing the concentration response studies. Briefly, the NCI60 human tumor lines were grown as monolayers in RPMI 1640 medium supplemented with 10% FBS and 2 mmol/L L-glutamine.
An additional 9 lines were from the NCI60 cell line panel including MDA-MB-231 breast carcinoma, MDA-MB-468 breast carcinoma, MCF7 breast carcinoma, Hs578T breast carcinoma, MALME-3M melanoma, SK-MEL-2 melanoma, SK-OV-3 ovarian carcinoma, DU-145 prostate carcinoma, PC-3 prostate carcinoma, all cell lines along with major genetic alterations are listed on Table 2. Pooled donor human umbilical vein endothelial cells (HUVEC, Lonza, cat. CC-2519) and human mesenchymal stem cells (hMSC, Lonza, cat. PT-2501) were purchased from Lonza (Walkersville, MD).
PDMR cell lines were grown in complete medium (DC medium): Dulbecco's modified Eagle's medium (DMEM)/F12 supplemented with 5% fetal bovine serum (FBS), 2 mM L-glutamine, 100 U/mL penicillin and 100 µg/ml streptomycin, 0.4 µg/ml hydrocortisone, 10 ng/ml epidermal growth factor (EGF) recombinant human protein, 24 µg/mL adenine, and 0.1 mg/mL primocin. During culture from frozen stock vials, PDMR cells were cultured in the same medium containing 10 µM Y-27632 (see Table 3). The PDCs were cultured in complete DMEM/F12 media without 10 microM Y-27632 dihydrochloride for at least two passages prior to the screen. The pooled donor HUVEC and hMSC were cultured in endothelial cell growth medium 2 (PromoCell, Heidelberg, Germany, cat. C-22011) and mesenchymal stem cell growth medium 2 (PromoCell, cat. C-28009), respectively. For all experiments, HUVEC and hMSC were used at passages </=5.
[…]
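Note: spheroids exposed to compounds for seven days before readout.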
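Throughout, for viability, T/C: T/C percent relative to DMSO vehicle wells set as 100% viability.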

For `Cc1nc(NC(=O)N2CCCC2C(N)=O)sc1-c1ccnc(C(C)(C)C(F)(F)F)c1` (stereo not given), the viability, T/C (compound 0.0316 µM) was 93.3% and 92%, the viability, T/C (compound 0.1 µM) was 85.5% and 87.4% and the viability, T/C (compound 0.316 µM) was 77.1% and 72.5%. The viability, T/C (compound 1 µM) was 53.9% and 63.8%, the viability, T/C (compound 3.16 µM) was 28% and 30.2% and the viability, T/C (compound 10 µM) was 3.02% and 2.66%. For the same compound, the IC50 (curve of compound) was 1230 nM and 1480 nM.
`Cn1cnc2c(F)c(Nc3ccc(Br)cc3Cl)c(C(=O)NOCCO)cc21` was tested, and the viability, T/C (compound 0.00949 µM) was 85.5% and 87.7%, the viability, T/C (compound 0.03 µM) was 64.7% and 68.2% and the viability, T/C (compound 0.0949 µM) was 53.1% and 54.3%. For the same compound, the viability, T/C (compound 0.3 µM) was 50.3% and 50.7%, the viability, T/C (compound 0.949 µM) was 37.5% and 43.6% and the viability, T/C (compound 3 µM) was 35.4% and 42.1%. For the same compound, the IC50 (curve of compound) was 166 nM and 234 nM.
`Cn1ncc(Cl)c1-c1cc(C(=O)NC(CN)Cc2cccc(F)c2)sc1Cl` (stereo not given) was tested, and the viability, T/C (compound 0.0316 µM) was 85.7% and 79%, the viability, T/C (compound 0.1 µM) was 71.9% and 81.5% and the viability, T/C (compound 0.316 µM) was 60.7% and 58.4%. For the same compound, the viability, T/C (compound 1 µM) was 48% and 62.5%, the viability, T/C (compound 3.16 µM) was 17.1% and 21.7% and the viability, T/C (compound 10 µM) was 0.19%. The IC50 (curve of compound) was 650 nM and 1170 nM.
For `Cn1nccc1Nc1nccc(-c2ccn(C(CO)c3ccc(Cl)c(F)c3)c(=O)c2)n1` (stereo not given), the viability, T/C (compound 0.0316 µM) was 93.2% and 90.2%, the viability, T/C (compound 0.1 µM) was 90.3% and 80.3% and the viability, T/C (compound 0.316 µM) was 71.5% and 79%. For the same compound, the viability, T/C (compound 1 µM) was 77.8% and 60.3%, the viability, T/C (compound 3.16 µM) was 85.2% and 81% and the viability, T/C (compound 10 µM) was 52.8% and 67.5%. The IC50 (curve of compound) was over 10000 nM.
With `Cn1ncnc1[C@H]1c2n[nH]c(=O)c3cc(F)cc(c23)N[C@@H]1c1ccc(F)cc1` the viability, T/C (compound 0.000316 µM) was 108% and 102%, the viability, T/C (compound 0.001 µM) was 100% and 95.7% and the viability, T/C (compound 0.00316 µM) was 96.7% and 99%. For the same compound, the viability, T/C (compound 0.01 µM) was 102% and 101%, the viability, T/C (compound 0.0316 µM) was 87.6% and 92.6% and the viability, T/C (compound 0.1 µM) was 83.5% and 84.1%. It also gave an IC50 (curve of compound) of over 100 nM.
Work on `Cn1cnc2c(F)c(Nc3ccc(Br)cc3Cl)c(C(=O)NOCCO)cc21` + CC(C)NCC(C(=O)N1CCN(c2ncnc3c2C(C)CC3O)CC1)c1ccc(Cl)cc1 yielded an IC50 (curve of first compound, second compound 0.1 µM) of 12.4 nM, an IC50 (curve of first compound, second compound 0.316 µM) of under 9.49 nM and an IC50 (curve of first compound, second compound 1 µM) of under 9.49 nM. For the same compound, the IC50 (curve of first compound, second compound 3.16 µM) was under 9.49 nM, the IC50 (curve of first compound, second compound 10 µM) was under 9.49 nM and the viability, T/C (second compound 0.1 µM, first compound 0.00949 µM) was 55%. It also gave a viability, T/C (second compound 0.1 µM, first compound 0.03 µM) of 35.1%, a viability, T/C (second compound 0.1 µM, first compound 0.0949 µM) of 27.4% and a viability, T/C (second compound 0.1 µM, first compound 0.3 µM) of 20.1%. For the same compound, the viability, T/C (second compound 0.1 µM, first compound 0.949 µM) was 18.3%, the viability, T/C (second compound 0.1 µM, first compound 3 µM) was 14% and the viability, T/C (second compound 0.316 µM, first compound 0.00949 µM) was 36.3%. The viability, T/C (second compound 0.316 µM, first compound 0.03 µM) was 19.5%, the viability, T/C (second compound 0.316 µM, first compound 0.0949 µM) was 14.1% and the viability, T/C (second compound 0.316 µM, first compound 0.3 µM) was 7.81%. It also gave a viability, T/C (second compound 0.316 µM, first compound 0.949 µM) of 7.98%, a viability, T/C (second compound 0.316 µM, first compound 3 µM) of 3.28% and a viability, T/C (second compound 1 µM, first compound 0.00949 µM) of 21.6%. For the same compound, the viability, T/C (second compound 1 µM, first compound 0.03 µM) was 12.9%, the viability, T/C (second compound 1 µM, first compound 0.0949 µM) was 5.36% and the viability, T/C (second compound 1 µM, first compound 0.3 µM) was 3.84%. It also gave a viability, T/C (second compound 1 µM, first compound 0.949 µM) of 2.91%, a viability, T/C (second compound 1 µM, first compound 3 µM) of 1.32% and a viability, T/C (second compound 3.16 µM, first compound 0.00949 µM) of 13.7%. For the same compound, the viability, T/C (second compound 3.16 µM, first compound 0.03 µM) was 6.24%, the viability, T/C (second compound 3.16 µM, first compound 0.0949 µM) was 3.66% and the viability, T/C (second compound 3.16 µM, first compound 0.3 µM) was 3.22%. The viability, T/C (second compound 3.16 µM, first compound 0.949 µM) was 2.57%, the viability, T/C (second compound 3.16 µM, first compound 3 µM) was 3.42% and the viability, T/C (second compound 10 µM, first compound 0.00949 µM) was 7.41%. For the same compound, the viability, T/C (second compound 10 µM, first compound 0.03 µM) was 4.11%, the viability, T/C (second compound 10 µM, first compound 0.0949 µM) was 1.36% and the viability, T/C (second compound 10 µM, first compound 0.3 µM) was 2.06%. It also gave a viability, T/C (second compound 10 µM, first compound 0.949 µM) of 1% and a viability, T/C (second compound 10 µM, first compound 3 µM) of 0.28%.
